Experimental data from ChEMBL document CHEMBL1649244, “Horizontal transfer of tetracycline resistance among Chlamydia spp. in vitro” (2009).
In brackets after ≈: the same amount, converted by molar mass.

Experiments:
Assay type in all cases: functional
[1] = system: Chlamydia trachomatis; assay: Antimicrobial activity against Chlamydia trachomatis L2/oflR harboring ompA gene
[2] = system: Chlamydia suis; assay: Antimicrobial activity against Chlamydia suis S45/rifR harboring rpoB gene
[3] = system: Chlamydia trachomatis; assay: Antimicrobial activity against Chlamydia trachomatis J/6276/rifR harboring ompA and rpoB genes
[4] = system: Chlamydia muridarum; assay: Antimicrobial activity against Chlamydia muridarum MoPn/oflR harboring ompA gene
[5] = system: Chlamydia trachomatis; assay: Antimicrobial activity against Chlamydia trachomatis L2/oflR-rifR1 harboring ompA and rpoB genes
[6] = system: Chlamydia suis; assay: Antimicrobial activity against Chlamydia suis R19/tetR harboring tet(C) allele
[7] = system: Chlamydia muridarum; assay: Antimicrobial activity against Chlamydia muridarum MoPn/rifRoflR harboring ompA and rpoB genes
[8] = system: Chlamydia trachomatis; assay: Antimicrobial activity against Chlamydia trachomatis L2/tetR13 harboring tet(C) allele
[9] = system: Chlamydia trachomatis; assay: Antimicrobial activity against Chlamydia trachomatis J/6276/tetR harboring tet(C) allele
[10] = system: Chlamydia trachomatis; assay: Antimicrobial activity against Chlamydia trachomatis F/70/rifR harboring rpoB gene
[11] = system: Chlamydophila caviae; assay: Antimicrobial activity against Chlamydophila caviae GPIC/rifR harboring rpoB gene; conditions: Chlamydia caviae
[12] = system: Chlamydia trachomatis; assay: Antimicrobial activity against Chlamydia trachomatis L2/oflR-rifR2 harboring […] and rpoB genes
[13] = system: Chlamydia trachomatis; assay: Antimicrobial activity against Chlamydia trachomatis J/6276/oflR-rifR1 harboring ompA and rpoB genes
[14] = system: Chlamydia muridarum; assay: Antimicrobial activity against Chlamydia muridarum MoPn/oflR-rifR harboring ompA and rpoB genes
[15] = system: Chlamydia trachomatis; assay: Antimicrobial activity against Chlamydia trachomatis J/6276/oflR-rifR2 harboring ompA and rpoB genes
[16] = system: Chlamydia trachomatis; assay: Antimicrobial activity against Chlamydia trachomatis L2/tetR1 harboring tet(C) allele
[17] = system: Chlamydia muridarum; assay: Antimicrobial activity against Chlamydia muridarum MoPn/tetR14 harboring tet(C) allele
[18] = system: Chlamydia muridarum; assay: Antimicrobial activity against Chlamydia muridarum MoPn/tetR1 harboring tet(C) allele
[19] = system: Chlamydia trachomatis; assay: Antimicrobial activity against Chlamydia trachomatis F/70/rifR-tetR harboring rpoB gene and tet(C) allele

Row | SMILES | MIC [1] [mg/L] | MIC [2] [mg/L] | MIC [3] [mg/L] | MIC [4] [mg/L] | MIC [5] [mg/L] | MIC [6] [mg/L] | MIC [7] [mg/L] | MIC [8] [mg/L] | MIC [9] [mg/L] | MIC [10] [mg/L] | MIC [11] [mg/L] | MIC [12] [mg/L] | MIC [13] [mg/L] | MIC [14] [mg/L] | MIC [15] [mg/L] | MIC [16] [mg/L] | MIC [17] [mg/L] | MIC [18] [mg/L] | MIC [19] [mg/L]
1 | CO[C@H]1/C=C/O[C@@]2(C)Oc3c(C)c(O)c4c(O)c(c(/C=N/N5CCN(C)CC5)c(O)c4c3C2=O)NC(=O)/C(C)=C\C=C\[C@H](C)[C@H](O)[C@@H](C)[C@@H](O)[C@@H](C)[C@H](OC(C)=O)[C@@H]1C [RIFAMPIN] | 0.004 (≈ 0.00486 µM) | 0.25 (≈ 0.304 µM) | 0.004 (≈ 0.00486 µM) | 0.008 (≈ 0.00972 µM) | 128 (≈ 156 µM) | 0.004 (≈ 0.00486 µM) | 128 (≈ 156 µM) | 0.004 (≈ 0.00486 µM) | 8 (≈ 9.72 µM) | 32 (≈ 38.9 µM) | 16 (≈ 19.4 µM) | 0.25 (≈ 0.304 µM) | 8 (≈ 9.72 µM) | 0.25 (≈ 0.304 µM) | 8 (≈ 9.72 µM) | 128 (≈ 156 µM) | 128 (≈ 156 µM) | 0.008 (≈ 0.00972 µM) | 32 (≈ 38.9 µM)
2 | CC1COc2c(N3CCN(C)CC3)c(F)cc3c(=O)c(C(=O)O)cn1c23 (configuration not stated) [OFLOXACIN] | 16 (≈ 44.3 µM) | 0.5 (≈ 1.38 µM) | 0.5 (≈ 1.38 µM) | 32 (≈ 88.6 µM) | 16 (≈ 44.3 µM) | 0.5 (≈ 1.38 µM) | 32 (≈ 88.6 µM) | 16 (≈ 44.3 µM) | 0.5 (≈ 1.38 µM) | 0.5 (≈ 1.38 µM) | 0.5 (≈ 1.38 µM) | 16 (≈ 44.3 µM) | 16 (≈ 44.3 µM) | 32 (≈ 88.6 µM) | 32 (≈ 88.6 µM) | 16 (≈ 44.3 µM) | 32 (≈ 88.6 µM) | 32 (≈ 88.6 µM) | 0.5 (≈ 1.38 µM)
3 | CN(C)[C@@H]1C(O)=C(C(N)=O)C(=O)[C@@]2(O)C(O)=C3C(=O)c4c(O)cccc4[C@@](C)(O)[C@H]3C[C@@H]12 [TETRACYCLINE] | 0.032 (≈ 0.072 µM) | 0.032 (≈ 0.072 µM) | 0.032 (≈ 0.072 µM) | 0.032 (≈ 0.072 µM) | 0.008 (≈ 0.018 µM) | 8 (≈ 18 µM) | 0.008 (≈ 0.018 µM) | 8 (≈ 18 µM) | 8 (≈ 18 µM) | 0.032 (≈ 0.072 µM) | 0.032 (≈ 0.072 µM) | 0.032 (≈ 0.072 µM) | 0.032 (≈ 0.072 µM) | 0.032 (≈ 0.072 µM) | 0.032 (≈ 0.072 µM) | 8 (≈ 18 µM) | 8 (≈ 18 µM) | 8 (≈ 18 µM) | 8 (≈ 18 µM)
